According to patent US20060276464A1, “Diarylsulfone sulfonamides and use thereof” (Wyeth, priority 2005, published 2006):
Like-named read-outs stand apart in the source and are kept apart here.

Molecular target: T1, SFRP-1 (Homo sapiens, UniProt Q8N474)
T1 sequence (Q8N474 32-314): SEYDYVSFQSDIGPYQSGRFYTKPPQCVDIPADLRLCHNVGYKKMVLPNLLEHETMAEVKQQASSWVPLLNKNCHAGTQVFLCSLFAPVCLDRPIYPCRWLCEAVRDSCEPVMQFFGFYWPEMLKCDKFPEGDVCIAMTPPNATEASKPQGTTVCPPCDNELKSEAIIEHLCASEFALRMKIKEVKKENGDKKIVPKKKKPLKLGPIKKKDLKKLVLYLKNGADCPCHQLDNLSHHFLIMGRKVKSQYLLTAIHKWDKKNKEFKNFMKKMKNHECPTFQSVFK
Assay: Cell-based assay for in vitro measurement of SFRP-1/SARP2 antagonist activity (U2OS cells co-transfected with 16x TCF-tk-Luciferase reporter, Wnt and hSFRP-1);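 note: U2OS cells co-transfected with a TCF-tk luciferase reporter, a Wnt vector, hSFRP-1 or empty vector and CMV-βgal, luciferase luminescence read in cell lysates alongside βgal activity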
Conditions: for fold induction at 15 µM / fold induction at 30 µM / fold induction at 20 µM / fold induction at 10 µM: U2OS; for fold induction at 10 µM: read-out: Fold Induction with SFRP-1, U2OS cells, single dose 10 μM, luciferase reporter, fold induction over SFRP-1 control

[1] = read-out: Fold Induction with SFRP-1, Conc 15 μM, single dose, luciferase reporter, fold induction over SFRP-1 control, cells with SFRP-1
[2] = read-out: Fold Induction without SFRP-1, Conc 15 μM, single dose, luciferase reporter, cells without SFRP-1 (specificity control)
[3] = read-out: Fold Induction with SFRP-1, Conc 30 μM, with SFRP-1, fold induction over SFRP-1 control, single dose
[4] = read-out: Fold Induction without SFRP-1, Conc 30 μM, without SFRP-1, single dose
[5] = read-out: Fold Induction with SFRP-1, Conc 15 μM, with SFRP-1, fold induction over SFRP-1 control, single dose
[6] = read-out: Fold Induction without SFRP-1, Conc 15 μM, without SFRP-1, single dose
[7] = read-out: Fold Induction with SFRP-1, Conc 20 μM, with SFRP-1, fold induction over SFRP-1 control, single dose
[8] = read-out: Fold Induction without SFRP-1, Conc 20 μM, without SFRP-1, single dose

Structure (SMILES)	fold induction at 15 µM [5]	fold induction at 15 µM [6]	further results
CN(C)c1ccc(S(=O)(=O)c2ccccc2)cc1S(=O)(=O)NCCc1ccccn1 [Example 601, 2-(dimethylamino)-5-(phenylsulfonyl)-N-(2-pyridin-2-ylethyl)benzenesulfonamide]			fold induction at 15 µM [1]: 2; fold induction at 15 µM [2]: 0.9
CC(C)c1ccc(S(=O)(=O)c2ccc(F)cc2)cc1S(=O)(=O)NC1CCN(C(=S)Nc2ccc3c(c2)C(=O)OC32c3ccc(O)cc3Oc3cc(O)ccc32)CC1 [Example 538, N-(3′,6′-dihydroxy-3-oxo-3H-spiro[2-benzofuran-1,9′-xanthen]-5-yl)-4-[({5-[(4-fluorophenyl)sulfonyl]-2-isopropylphenyl}sulfonyl)amino]piperidine-1-carbothioamide]			fold induction at 15 µM [1]: 2.4; fold induction at 15 µM [2]: 1.1
Cc1ccc(S(=O)(=O)c2ccc(F)cc2)cc1S(=O)(=O)NCCc1ccccc1 [Example 2, 5-[(4-fluorophenyl)sulfonyl]-2-methyl-N-(2-phenylethyl)benzenesulfonamide]			fold induction at 30 µM [3]: 0.9; fold induction at 30 µM [4]: 0.5
Cc1ccc(S(=O)(=O)c2ccc(Cl)cc2)cc1S(=O)(=O)NCCN1CCOCC1 [Example 290, 5-[(4-chlorophenyl)sulfonyl]-2-methyl-N-(2-morpholin-4-ylethyl)benzenesulfonamide]	1.9	0.8	
Cc1ccc(S(=O)(=O)c2ccc(C#N)cc2)cc1S(=O)(=O)NC1CCOCC1 [Example 376, 5-[(4-cyanophenyl)sulfonyl]-2-methyl-N-(tetrahydro-2H-pyran-4-yl)benzenesulfonamide]	1.5	1.1	
CCc1ccc(S(=O)(=O)c2ccccc2)cc1S(=O)(=O)NCCCc1ccccc1 [Example 245, 2-ethyl-N-(3-phenylpropyl)-5-(phenylsulfonyl)benzenesulfonamide]	1.9	1.2	
Cc1ccc(S(=O)(=O)c2ccc(C)c(S(=O)(=O)NC3Cc4ccccc4C3)c2)cc1 [Example 252, N-2,3-dihydro-1H-inden-2-yl-2-methyl-5-[(4-methylphenyl)sulfonyl]benzenesulfonamide]			fold induction at 20 µM [7]: 2.6; fold induction at 20 µM [8]: 1
Cc1ccc(S(=O)(=O)c2ccc(N=[N+]=[N-])cc2)cc1S(=O)(=O)NCCCn1ccnc1 [Example 293, 5-[(4-azidophenyl)sulfonyl]-N-[3-(1H-imidazol-1-yl)propyl]-2-methylbenzenesulfonamide]	2.5	0.9	
Cc1ccc(S(=O)(=O)c2ccc(C(C)C)cc2)cc1S(=O)(=O)NCCCn1ccnc1 [Example 338, N-[3-(1H-imidazol-1-yl)propyl]-5-[(4-isopropylphenyl)sulfonyl]-2-methylbenzenesulfonamide]	1.2	1	
Cc1ccc(S(=O)(=O)c2ccccc2)cc1S(=O)(=O)NCC(C)(C)C [Example 396, N-(2,2-dimethylpropyl)-2-methyl-5-(phenylsulfonyl)benzenesulfonamide]	1.4	1	
COC(=O)CCNS(=O)(=O)c1cc(S(=O)(=O)c2ccccc2)ccc1OC [Example 233, methyl N-{[2-methoxy-5-(phenylsulfonyl)phenyl]sulfonyl}-beta-alaninate]	1.5	1	
CC(=O)c1ccc(S(=O)(=O)c2ccc(C)c(S(=O)(=O)NCCc3ccccn3)c2)cc1 [Example 403, 5-[(4-acetylphenyl)sulfonyl]-2-methyl-N-(2-pyridin-2-ylethyl)benzenesulfonamide]	2.5	1.1	
COc1ccccc1S(=O)(=O)c1ccc(C)c(S(=O)(=O)NCCCn2ccnc2)c1 [Example 316, N-[3-(1H-imidazol-1-yl)propyl]-5-[(2-methoxyphenyl)sulfonyl]-2-methylbenzenesulfonamide]	2.5	1.1	
Cc1ccc(S(=O)(=O)c2ccccc2-c2ccccc2)cc1S(=O)(=O)NCCc1ccccn1 [Example 432, 5-(biphenyl-2-ylsulfonyl)-2-methyl-N-(2-pyridin-2-ylethyl)benzenesulfonamide]	1.9	0.9	
CCOc1cc(CCNS(=O)(=O)c2cc(S(=O)(=O)c3ccccc3)ccc2OC)ccc1OC [Example 157, N-[2-(3-ethoxy-4-methoxyphenyl)ethyl]-2-methoxy-5-(phenylsulfonyl)benzenesulfonamide]	1.5	1.2	
Cc1ccc(S(=O)(=O)c2ccc(Cl)cc2)cc1S(=O)(=O)NCCc1ccccn1 [Example 291, 5-[(4-chlorophenyl)sulfonyl]-2-methyl-N-(2-pyridin-2-ylethyl)benzenesulfonamide]	1.7	0.9	
Cc1ccc(S(=O)(=O)c2ccc(NC3CCOCC3)cc2)cc1S(=O)(=O)NCCCn1ccnc1 [Example 366, N-[3-(1H-imidazol-1-yl)propyl]-2-methyl-5-{[4-(tetrahydro-2H-pyran-4-ylamino)phenyl]sulfonyl}benzenesulfonamide]	2.4	1	
CCc1ccc(S(=O)(=O)c2ccccc2)cc1S(=O)(=O)NCCc1ccc(OC)c(OC)c1 [Example 144, N-[2-(3,4-dimethoxyphenyl)ethyl]-2-ethyl-5-(phenylsulfonyl)benzenesulfonamide]	3	1.1	
Cc1cc(S(=O)(=O)c2ccccc2)cc(S(=O)(=O)NC2CCNCC2)c1C [Example 922, 2,3-dimethyl-5-(phenylsulfonyl)-N-piperidin-4-ylbenzenesulfonamide]			fold induction at 10 µM: 1.1
Cc1ccc(S(=O)(=O)c2ccccc2)cc1S(=O)(=O)NCCc1ccccc1F [Example 53, N-[2-(2-fluorophenyl)ethyl]-2-methyl-5-(phenylsulfonyl)benzenesulfonamide]			Fold Induction with SFRP-1 (Conc 30 μM, with SFRP-1, fold induction over SFRP-1 control, single dose): 1.2 fold; Fold Induction without SFRP-1 (Conc 30 μM, without SFRP-1, single dose): 0.6 fold; fold induction at 30 µM [3]: 1; fold induction at 30 µM [4]: 0.4
Cc1ccc(S(=O)(=O)c2ccccc2)cc1S(=O)(=O)NC[C@@H](C)c1ccccc1 [Example 262, 2-methyl-N-[(2S)-2-phenylpropyl]-5-(phenylsulfonyl)benzenesulfonamide]	1.6	1.1	
Cc1ccc(S(=O)(=O)c2ccccc2)cc1S(=O)(=O)NC1CCNCC1 [Example 447, 2-methyl-5-(phenylsulfonyl)-N-piperidin-4-ylbenzenesulfonamide]	3	1.1	
COC(=O)c1ccc(CNS(=O)(=O)c2cc(S(=O)(=O)c3ccccc3)ccc2C(C)C)cc1 [Example 951, methyl 4-[({[2-isopropyl-5-(phenylsulfonyl)phenyl]sulfonyl}amino)methyl]benzoate]			fold induction at 10 µM: 1.8
Cc1ccc(S(=O)(=O)c2ccccc2)c(C)c1S(=O)(=O)NC1CCOCC1 [Example 473, 2,6-dimethyl-3-(phenylsulfonyl)-N-(tetrahydro-2H-pyran-4-yl)benzenesulfonamide]	0.9	0.9	
Cc1ccc(S(=O)(=O)c2ccccc2)cc1S(=O)(=O)N1CCN(CC(=O)N2CCCC2)CC1 [Example 279, 1-{[2-methyl-5-(phenylsulfonyl)phenyl]sulfonyl}-4-(2-oxo-2-pyrrolidin-1-ylethyl)piperazine]	1.9	1	
Cc1ccc(S(=O)(=O)c2ccc(Cl)cc2)cc1S(=O)(=O)NC[C@H](C)c1ccccc1 [Example 257, 5-[(4-chlorophenyl)sulfonyl]-2-methyl-N-[(2R)-2-phenylpropyl]benzenesulfonamide]			fold induction at 20 µM [7]: 2.4; fold induction at 20 µM [8]: 1
C[C@H](NS(=O)(=O)c1cc(S(=O)(=O)c2ccccc2)ccc1C(F)(F)F)[C@H](O)c1ccccc1 [Example 685, N-[(1S,2R)-2-hydroxy-1-methyl-2-phenylethyl]-5-(phenylsulfonyl)-2-(trifluoromethyl)benzenesulfonamide]			fold induction at 10 µM: 1.5
Cc1ccc(S(=O)(=O)c2ccccc2)cc1S(=O)(=O)NCCN(C)C [Example 214, N-[2-(dimethylamino)ethyl]-2-methyl-5-(phenylsulfonyl)benzenesulfonamide]	3.2	1.5	
Cc1ccc(S(=O)(=O)c2ccccc2)cc1S(=O)(=O)NCCCN1CCN(C)CC1 [Example 221, 2-methyl-N-[3-(4-methylpiperazin-1-yl)propyl]-5-(phenylsulfonyl)benzenesulfonamide]	3	1.2	
COc1ccc(C(=O)NCCNS(=O)(=O)c2cc(S(=O)(=O)c3ccccc3)ccc2C(F)(F)F)cc1 [Example 780, 4-Methoxy-N-[2-({[5-(phenylsulfonyl)-2-(trifluoromethyl)phenyl]sulfonyl}amino)ethyl]benzamide]			fold induction at 10 µM: 1.7
